Data as given in patent US5866573A, “Pyrazinone thrombin inhibitors” (Merck & Co., Inc., priority 1997, dated 1999).

Tests used:
human α-thrombin = human α-thrombin (Homo sapiens, UniProt P00734); assay: In vitro assay for determining proteinase inhibition: human α-thrombin; type: biochemical; settings: inhibitory activity against human thrombin, class symbols of Tables 1-3; 25° C., pH 7.4
Description: Assays of human α-thrombin and human trypsin were performed by the methods substantially as described in Thrombosis Research, Issue No. 70, page 173 (1993) by S. D. Lewis et al.
The assays were carried out at 25° C. in 0.05M TRIS buffer pH 7.4, 0.15M NaCl, 0.1% PEG. Trypsin assays also contained 1 mM CaCl2. In assays wherein rates of hydrolysis of a p-nitroanilide (pna) substrate were determined, a Thermomax 96-well plate reader was used was used to measure (at 405 nm) the time dependent appearance of p-nitroaniline. sar-PR-pna was used to assay human α-thrombin (Km =125 μM) and bovine trypsin (Km =125 μM). p-Nitroanilide substrate concentration was determined from measurements of absorbance at 342 nm using an extinction coefficient of 8270 cm^-1 M^-1.
In certain studies with potent inhibitors (Ki <10 nM) where the degree of inhibition of thrombin was high, a more sensitive activity assay was employed. In this assay the rate of thrombin catalyzed hydrolysis of the fluorogenic substrate Z-GPR-afc (Km =27 μM) was determined from the increase in fluorescence at 500 nm (excitation at 400 nm) associated with production of 7-amino-4-trifluoromethyl coumarin. Concentrations of stock solutions of Z-GPR-afc were determined from measurements of absorbance at 380 nm of the 7-amino-4-trifluoromethyl coumarin produced upon complete hydrolysis of an aliquot of the stock solution by thrombin.
Activity assays were performed by diluting a stock solution of substrate at least tenfold to a final concentration ≤0.1 Km into a solution containing enzyme or enzyme equilibrated with inhibitor. Times required to achieve equilibration between enzyme and inhibitor were determined in control experiments. Initial velocities of product formation in the absence (Vo) or presence of inhibitor (Vi) were measured. […]

thrombotic occlusion = assay: In vivo rat ferric chloride assay to measure thrombotic occlusions; set-up: species or system Male Sprague-Dawley rats; settings: 10 μg/kg/min i.v. infusion from 60 min before 35% FeCl3 and 90 min after, 6 rats
Description: Studies of 3 (2-Phenylethylarnino)-6-methyl-1-(2-amino-6-following rat ferric chloride assay substantially as described in Thrombosis Research, No. 60, page 269(1990) by Kurtz et al were used to determine in vivo activity of the thrombin inhibitors of the invention. Male Sprague-Dawley rats (b)ody weights 200-350 grams) were anesthetized with dial-urethane solution (0.1 ml/100 gm body weight i.p.), and a lateral tail vein was cannulated with a 23 gauge needle connected to a 12 inch length of PE50 tubing. The tubing was attached to a 3-way valve by a tubing adapter. Saline (control) or test compound, as appropriate, was administered via the tail vein catheter. A tracheostomy was performed with a 0.75 inch length of PE205 tubing. The right carotid artery is exposed and a 1.3 mm diameter Doppler flow probe was placed on the vessel. Body temperature was maintained at 37° C. using a heat lamp.
6 rats were randomized to continuous intravenous infusions of saline or test compound administered via the tail vein. Test compound was administered at a rate of 10 μg/kg/min. Treatment infusions were initiated 60 min before the placement of a 3 mm square piece of Whatman No. 1 filter paper saturated with 35% FeCl3 onto the exposed carotid artery distal to the flow probe. […] Time to occlusion was defined as the time from application of FeCl3 to thrombotic occlusion of the vessel.

| Structure (SMILES) | Ki (human α-thrombin) [nM] | efficacy in rat ferric chloride assay (thrombotic occlusion) | rats showing evidence of thrombotic occlusion (thrombotic occlusion) |
| --- | --- | --- | --- |
| CCNC(=O)COc1ccccc1CNC(=O)Cn1c(C)cnc(NCCc2ccccc2)c1=O [H, NHC2 H5] | < 1 | – | – |
| Cc1nc(N)ccc1CNC(=O)Cn1c(C)cnc(NC(C)(C)Cc2ccccc2)c1=O [PhCH2 C(CH3)2] | ≥ 1 | – | – |
| CCNC(=O)COc1ccc(Cl)cc1CNC(=O)Cn1c(C)cnc(NC(C)(C)C)c1=O [t-C4 H9] | ≥ 1 | – | – |
| Cc1nc(N)ccc1CNC(=O)Cn1c(C)cnc(NCCc2ccccc2)c1=O [test compound] | – | fully efficacious | None of the rats treated with the test compound showed evidence of thrombotic occlusion |
